Assay results reported in patent US11485762B2, “Compositions and methods for inhibition of L-plastin activity in osteoclasts to reduce bone loss” (University of Maryland, Baltimore, priority 2017, dated 2022).
“Also recorded” adds a separate entry of the source.

Tests used:
[1] = system: endogenous LPL; assay: Phosphorylation of endogenous LPL in osteoclasts derived from RAW cells; type: cell-based; conditions: bone particles and TNF-α
Text: (§1) C57/BL6 mice were used for osteoclast preparation as described previously (Chellaiah et al., 2000, J. Cell Biol., 148: 665.678; Chellaiah et al., 2007, J. Biol. Chem., 282: 10104-10116). Osteoclasts were generated in vitro using mouse bone marrow (BM) cells as described (Chellaiah et al., 2000, J. Cell Biol., 148: 665-678; Chellaiah et al., 2007, J. Biol. Chem., 282: 10104.10116). Osteoclasts differentiated from RAW 264.7 cells were also used to corroborate a few of the observations made with osteoclasts derived from mouse BM cells. Osteoclasts from RAW 264.7 cells were generated as described previously (Gupta et al., 2003, J Bone Miner Res 18: 669-685). Conditions were established that offer >90% population of mature multinucleated osteoclasts from both mouse bone marrow and RAW cells.
After flushing the marrow cells for osteoclast differentiation, long mouse bones (free of cells inside and muscles outside) were washed extensively with PBS and kept in ethanol until use. Long bones were air-dried in the hood and homogenized by a mini blender. Bone particles were sieved, and bone particles 60-80 μm in size were used for experiments. The multinucleated osteoclasts were seen from day four onward from mouse BM or RAW cells. At this stage, osteoclasts were added with sterile native bone particles (100 μg/ml medium) for 3-4 hours or 12-14 hours in the presence of TNF-α (20 ng/ml). […]

[2] = system: osteoclasts derived from RAW cells; assay: NSZs and sealing ring formation in osteoclasts derived from RAW cells; type: cell-based
Text: as §1
After cells were kept in the serum-free α-MEM medium for two hours, LPL peptides of interest were added to a final concentration of 100-150 nM to cells in serum-free media (Chellaiah et al, 2000, J. Biol. Chem., 275: 11993-12002). Osteoclasts transduced with peptides of interest and added with bone particles in the presence of TNF-α for 3-4 hours or 12-14 hours were used for lysate preparations. Cells plated on coverslips and treated with peptides were used for actin staining to detect podosomes. […]

[3] = system: osteoclasts derived from RAW cells; assay: Podosome organization and migration in osteoclasts derived from RAW cells; type: cell-based; conditions: compared with P5
Text: as §1, with “RAW cells. […]” for “RAW cells.”
Cell migration (phagokinesis and transwell migration) assays were done as described previously (Chellaiah et al., 2000, J. Cell Biol., 148: 665-678). […] Migrated cells at the bottom of the wells were counted in 3-4 independent fields/transwell filter. […] In phagokinesis assay, cell motility was assessed by measuring the areas free of gold particles. By using a grided reticule (Boyce Scientific. Inc.) in the eyepiece of a Nikon microscope, areas free of gold particles were measured using a 10× objective. […]

[4] = system: integrin αv; assay: Localization of integrin αv in NSZs (immunostaining with LPL and integrin αv antibody); type: cell-based, mouse; conditions: 3, 6 and 10 hours
Method: After cells were kept in the serum-free α-MEM medium for two hours, LPL peptides of interest were added to a final concentration of 100-150 nM to cells in serum-free media (Chellaiah et al, 2000, J. Biol. Chem., 275: 11993-12002). Osteoclasts transduced with peptides of interest and added with bone particles in the presence of TNF-α for 3-4 hours or 12-14 hours were used for lysate preparations. Cells plated on coverslips and treated with peptides were used for actin staining to detect podosomes. After transduction for 30 min., osteoclasts were re-plated on dentine slices with respective LPL peptide and TNF-α for 3-6 hours or 12-14 hours. These cells were used for Actin staining with rhodamine-phalloidin or immunostaining analyses (Chellaiah et al., 2000, J. Biol. Chem., 275: 11993-12002; Chellaiah et al., 2000, J. Cell. Biol., 148: 665-678; Chellaiah et al., 2003, J Biol Chem 278: 29086-29097).
Osteoclasts were fixed with 3% paraformaldehyde for 20 minutes and permeabilized with 0.1% Triton X-100 in PBS for 5 minutes. Subsequently, osteoclasts were stained with a primary (HA or integrin αv) and secondary antibody as described (Chellaiah et al., 2003, J Biol Chem 278: 29086-29097). Actin staining was done with rhodamine-phalloidin as described (Chellaiah et al., 2000, J. Biol. Chem., 275: 11993-12002; Chellaiah et al., 2000, J. Cell Biol., 148: 665-678). […]

With “MARGSVSDEE [Peptide P1, TAT-fused small molecular weight (10aa) amino-terminal LPL peptide, unsubstituted (S5S7)]” the “phosphorylation of endogenous (cellular) LPL” value [1] was “significant decrease; also recorded: reduced”, the “formation of NSZs” value [2] was “significant decrease” and the “formation of sealing rings” value [2] was “significant decrease”. The migration of osteoclasts [3] was “no effect”, the “pattern of podosome organization” value [3] was “no effect” and the “localization of integrin αv in NSZs / colocalization with LPL” value [4] was “abrogated”.
